Consider 8 molecules from patent US6767909B2, “Compounds useful for treatment or prevention of disease mediated by alpha-2B-adrenoceptor” (Oy Juvantia Pharma Ltd., priority 2001, dated 2004).

For experiment [1], the target named is T1, human alpha-2A-adrenoceptor (Homo sapiens, UniProt P08913).
T1 construct: expressed in transfected cells
T1 sequence (P08913 1-465): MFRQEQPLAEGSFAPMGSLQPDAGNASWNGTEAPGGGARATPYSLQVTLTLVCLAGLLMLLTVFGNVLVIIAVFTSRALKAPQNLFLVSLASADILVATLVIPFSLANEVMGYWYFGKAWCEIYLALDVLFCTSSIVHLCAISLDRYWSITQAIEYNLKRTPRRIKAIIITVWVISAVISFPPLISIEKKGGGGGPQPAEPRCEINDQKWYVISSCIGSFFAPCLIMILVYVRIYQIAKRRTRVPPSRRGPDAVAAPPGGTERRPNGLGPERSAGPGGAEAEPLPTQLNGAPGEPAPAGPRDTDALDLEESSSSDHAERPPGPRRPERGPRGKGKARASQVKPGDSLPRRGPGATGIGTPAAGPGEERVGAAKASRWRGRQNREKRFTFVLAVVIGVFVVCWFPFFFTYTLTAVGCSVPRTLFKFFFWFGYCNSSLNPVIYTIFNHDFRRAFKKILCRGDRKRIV
The experiment is described as follows: Human alpha-2-adrenoceptor binding affinity, 3H-rauwolscine competition binding. As to conditions: Mean ± SEM, membranes of Shionogi S115 cells transfected with human α2A. The protocol:
(§1) Results expressed in the form of “>” means that no numerical values for Ki's could be established due to lack of displacement or due to incomplete competition curves.
(§2) Human Alpha-2-adrenoceptor Binding Affinity
(§3) After 30 min at room temperature, incubations were terminated by rapid vacuum filtration through GF/B glass fiber filter and three 5 ml washes with ice-cold incubation buffer. The filters were then dried, impregnated with scintillate and their radioactivity was measured by scintillation counting. The analysis of the experiments was carried out by non-linear least square curve fitting. Experimentally determined IC50 values were converted to Ki's by making use of the Cheng-Prusoff equation (Cheng and Prusoff, 1973). Experiments were repeated a minimum of three times. to the incubation mixture. After an additional 60 min at room temperature, the incubation was terminated by rapid vacuum filtration through glass fibre filter. Filters were washed three times with 5 ml ice cold wash buffer (20 mM Tris, 5 mM MgCl2, 1 mM EDTA pH 7.4 at room temperature), dried and counted for radioactivity in a scintiallation counter. Analysis of experiments was carried out by non-linear least square fitting. Results are based on a minimum of three experiments.

Experiment [2] has as its target T2, human alpha-2B-adrenoceptor (Homo sapiens, UniProt P18089).
T2 construct: expressed in transfected cells
T2 sequence (P18089 1-450): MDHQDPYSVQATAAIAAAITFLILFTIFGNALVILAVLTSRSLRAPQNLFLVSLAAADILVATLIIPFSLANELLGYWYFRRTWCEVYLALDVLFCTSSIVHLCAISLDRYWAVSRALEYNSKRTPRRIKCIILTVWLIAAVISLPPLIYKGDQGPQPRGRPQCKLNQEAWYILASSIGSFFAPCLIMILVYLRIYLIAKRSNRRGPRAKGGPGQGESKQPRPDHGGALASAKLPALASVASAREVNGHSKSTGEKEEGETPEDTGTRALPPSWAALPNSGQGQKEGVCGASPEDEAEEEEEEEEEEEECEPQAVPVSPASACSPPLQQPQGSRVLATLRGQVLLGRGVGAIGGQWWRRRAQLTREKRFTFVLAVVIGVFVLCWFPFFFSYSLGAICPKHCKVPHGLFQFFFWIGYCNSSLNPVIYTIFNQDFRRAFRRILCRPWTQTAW
The experiment is described as above. As to conditions: Mean ± SEM, membranes of Shionogi S115 cells transfected with human α2B. On the procedure:
as §1, §2
as §3, with “Experimentally determined IC50 values were converted to Ki's by making use of the Cheng-Prusoff equation (Cheng and Prusoff, 1973).” left out

In experiment [3] the target is T3, human alpha-2C-adrenoceptor (Homo sapiens, UniProt P18825).
T3 construct: expressed in transfected cells
T3 sequence (P18825 1-462): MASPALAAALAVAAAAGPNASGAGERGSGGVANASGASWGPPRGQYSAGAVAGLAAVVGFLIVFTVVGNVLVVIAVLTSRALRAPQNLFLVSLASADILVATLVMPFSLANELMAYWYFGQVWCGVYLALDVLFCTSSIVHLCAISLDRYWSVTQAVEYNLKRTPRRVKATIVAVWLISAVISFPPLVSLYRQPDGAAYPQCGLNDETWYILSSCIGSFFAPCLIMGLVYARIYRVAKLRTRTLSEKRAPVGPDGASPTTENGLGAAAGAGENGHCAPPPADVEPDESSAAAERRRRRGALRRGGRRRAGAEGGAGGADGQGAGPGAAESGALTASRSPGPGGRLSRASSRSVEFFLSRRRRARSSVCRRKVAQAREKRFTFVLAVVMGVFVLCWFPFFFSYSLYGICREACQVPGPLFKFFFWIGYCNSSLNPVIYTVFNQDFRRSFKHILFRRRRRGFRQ
The experiment is described as above. As to conditions: Mean ± SEM, membranes of Shionogi S115 cells transfected with human α2C. On the procedure:
as §1, §2
as §3, with “Experimentally determined IC50 values were converted to Ki's by making use of the Cheng-Prusoff equation (Cheng and Prusoff, 1973).” left out

Experiment [4] has as its target T2, human alpha-2B-adrenoceptor. The experiment in a line: Antagonist activity: inhibition of epinephrine-stimulated 35S-GTPγS binding. The class given is biochemical. The conditions noted are these: Mean ± SEM; CHO cell membranes, human α2B; 15 μM epinephrine; read-out: KB alpha-2B antagonist effect. The protocol:
(§4) Antagonist Activity on Human Alpha-2-adrenoceptor Subtypes
as §3, with “Experimentally determined IC50 values were converted to Ki's by making use of the Cheng-Prusoff equation (Cheng and Prusoff, 1973).” left out
In general terms: GTPγS is a poorly hydrolysed GTP analogue; its binding reports G protein activation.

Experiment [5] concerns the target T3, human alpha-2C-adrenoceptor. The description is as above. The class given is biochemical. As to conditions: Mean ± SEM; CHO cell membranes, human α2C; 5 μM epinephrine; read-out: KB alpha-2C antagonist effect. The protocol: as §4
as §3, with “Experimentally determined IC50 values were converted to Ki's by making use of the Cheng-Prusoff equation (Cheng and Prusoff, 1973).” left out

For experiment [6], the target named is T1, human alpha-2A-adrenoceptor. The experiment is described as above. The format is biochemical. As to conditions: Mean ± SEM; CHO cell membranes, human α2A; 5 μM epinephrine; read-out: KB alpha-2A antagonist effect. The protocol:
as §4
Membranes (2-6 μg of protein per sample) and 12 concentrations of test compound were preincubated for 30 min with a fixed concentration fo epinephrine (5 μM for α2A, 15 μM for α2B, 5 μM for α2C) in 50 mM Tris, 5 mM MgCl2, 150 mM NaCl, 1 mM DTT, 1 mM EDTA, 10 μM GDP, 30 μM ascorbic acid, pH 7.4 at room temperature. Binding of radiolabel was started by the addition of trace amounts of ^35S-GTPγS (0.08-0.15 nM, specific activity 1250 Ci/mmol)
as §3

The term Ki denotes the equilibrium dissociation constant of an inhibitor or competing ligand from its target. `Cc1cc(C)nc(NS(=O)(=O)c2ccc(NCc3nc4ccccc4n3CC(C)C)cc2)n1` [Compound A, N-(4,6-Dimethylpyrimidin-2-yl)-4-[(1-isobutyl-1H-benzimidazol-2-ylmethyl)-amino]-benzenesulfonamide]: the results for the Ki in experiment [1], in experiment [2] and in experiment [3] were over 13 µM, 0.16 ± 0.02 µM and over 30 µM, respectively.

Usually Kb stands for the affinity of an antagonist, worked out from how it opposes an agonist. `Cc1cc(C)nc(NS(=O)(=O)c2ccc(NCc3ccccc3C)cc2)n1` [Compound B, N-(4,6-Dimethylpyrimidin-2-yl)-4-(2-methylbenzylamino)-benzenesulfonamide]: the inhibition constant (Ki) in experiment [1] was over 4.5 µM; in experiment [2], 0.034 ± 0.002 µM; in experiment [3] it was over 10 µM. Moreover, the antagonist equilibrium constant (Kb) in experiment [4] is 0.075 ± 0.009 µM; in experiment [5], 5.7 ± 0.7 µM; in experiment [6] it was 14.5 ± 3.6 µM.

In the case of `Cc1cc(C)nc(NS(=O)(=O)c2ccc(NCc3c(Cl)cccc3Cl)cc2)n1` [Compound C, 4-(2,6Dichlorobenzylamino)-N-(4,6-dimethylpyrimidin-2-yl)-benzenesulfonamide], the Ki is 2 ± 0.4 µM in experiment [1] and over 10 µM in experiment [3]. The values for the Kb in experiment [5] and in experiment [6] were 6.3 ± 1.4 µM and 5.4 ± 1.4 µM, respectively.

Regarding `Cc1cc(C)nc(NS(=O)(=O)c2ccc(NCc3ccc4ccccc4c3)cc2)n1` [Compound D, N-(4,6-Dimethylpyrimidin-2-yl)-4-[(naphthalen-2-ylmethyl)-amino]-benzenesulfonamide], the Ki was over 10 µM in experiment [1], 0.44 ± 0.07 µM in experiment [2] and over 10 µM in experiment [3].

For the molecule `COc1cccc(CNc2ccc(S(=O)(=O)Nc3nc(C)cc(C)n3)cc2)c1` [Compound E, N-(4,6-Dimethylpyrimidin-2yl-)4(3-methoxybenzylamino)-benzenesulfonamide], the values for the Ki in experiment [1], in experiment [2] and in experiment [3] were over 5.1 µM, 0.02 ± 0.004 µM and over 10 µM, respectively. Further, the figures for the Kb in experiment [4], in experiment [5] and in experiment [6] were 0.029 ± 0.005 µM, 7.3 ± 1.1 µM and 7.9 ± 3.1 µM, respectively.

With `CCn1cc(CNc2ccc(S(=O)(=O)Nc3nc(C)cc(C)n3)cc2)c2ccccc21` [Compound F, N-(4,6-Dimethylpyrimidin-2-yl)-4-[(1-ethyl-1H-indol-3-ylmethyl)-amino]-benzenesulfonamide], the Ki in experiment [1] is over 4.3 µM; in experiment [2], 0.043 ± 0.007 µM; in experiment [3] it was over 10 µM. Moreover, the antagonist dissociation constant (Kb) in experiment [4] is 0.24 ± 0.06 µM; in experiment [5] it was 12 ± 2 µM; in experiment [6] it was 8.7 ± 1.1 µM.

Take `COc1ccccc1CCNc1ccc(S(=O)(=O)Nc2nc(C)cc(C)n2)cc1` [Compound G, N-(4,6-Dimethylpyrimidin-2-yl)-4-[2-(2-methoxyphenyl)-ethylamino]-benzenesulfonamide]: the inhibition constant (Ki) in experiment [1] was 2.2 ± 0.6 µM; in experiment [2], 0.032 ± 0.005 µM; in experiment [3], over 10 µM. The values for the Kb in experiment [4], in experiment [5] and in experiment [6] were 0.086 ± 0.064 µM, 4.7 ± 1.8 µM and 3.2 ± 0.5 µM, respectively.

As for `Cc1cc(C)nc(NS(=O)(=O)c2ccc(NC(c3ccccc3)c3ccccc3)cc2)n1` [Compound H, 4-(Benzhydrylamino)-N-(4,6-dimethylpyrimidin-2-yl)-benzenesulfonamide], the Ki in experiment [1] is over 30 µM; in experiment [2] it was 8 ± 0.5 µM; in experiment [3], over 30 µM.
